Source: US12043652B2, “Engineered extracellular receptor constructs and uses thereof” (TRUSTEES OF BOSTON UNIVERSITY, priority 2020, dated 2024)
Entries after “also recorded” stand apart in the source; their conditions may differ. Values belong to the compound of their own block, whether it stands above or below them.

How the values were obtained:
Assay type in all cases: cell-based
[1] = system: BCL-xL-BH3(G22)-Gal4-VP64 sensor; experiment: BCL-xL-BH3(G22)-Gal4-VP64 sensor: ICD driven H2B-mCherry reporter expression
Method: FIG. 3 Activity of BCL-xL-BH3(G22)-Gal4-VP64 upon presence of BCL-xL inhibitors. BCL-xL serves as a ligand binding domain and BH3(G22) serves as an intramolecular peptide. […] H2B mCherry expression is visualized via microscopy. A fluorescent transfection marker is also shown to verify the presence of cells as a smaller corresponding image. Images were taken 48 hours after transfection and drug addition. Scale bar 50 μm.
(§1) Upon addition of inducer and either gamma secretase inhibitor, H2B-mCherry signal is ablated. Images are taken 24 hours after transfection and drug addition. A fluorescent transfection marker is shown as a smaller corresponding image. […] Scale bar 50 μm.
The inventors next applied this methodology to a completely different LBD and peptide pair, BCL-xL and the BH3(G22) peptide, while keeping the ICD the same.

[2] = system: γ-secretase; experiment: Gamma secretase dependence of two sensors (H2B-mCherry reporter with inducer plus gamma secretase inhibitor); conditions: dNS3-(EDVVCC) and BCL-xL-BH3(G22) sensors, inducer grazoprevir 3 μM or ABT-737 3 μM, DAPT 5 μM, Compound E 1 μM, 24 hours
Method: FIG. 4 Gamma secretase dependence of two distinct sensors. dNS3-(EDVVCC (SEQ ID NO: 57))-TMD-Gal4-VP64 and BCL-xL-BH3(G22)-TMD-Gal4-VP64 sensors were tested for gamma secretase dependence via the addition of gamma secretase inhibitors DAPT and Compound E (Cpd E). […] Upon addition of inducer and either gamma secretase inhibitor, H2B-mCherry signal is ablated. Images are taken 24 hours after transfection and drug addition. A fluorescent transfection marker is shown as a smaller corresponding image. Drug concentrations are as follows: NS3 inducer, grazoprevir 3 μM; BCL-xL inducer, ABT-737 3 μM; DAPT 5 μM; Compound E 1 μM. Scale bar 50 μm.
To probe into the mechanism of activation for the antiviral drug sensors and ABT-737 sensor, the inventors next inhibited γ-secretase with selective inhibitors, DAPT and compound E. Upon inhibition with either of these compounds, ICD driven activation of H2B-mCherry was inhibited (FIG. 4). Inhibition also occurred despite the presence of each associated sensor inducer, indicating γ-secretase plays a crucial role in MIMOsensor activation and is required for ICD release.

[3] = molecular target: T1, catalytically inactive NS3 protease (NS3^S139A, dNS3) sensor (Hepatitis C virus genotype 1a, UniProt P27958, S1165A); conditions: drug grazoprevir; histograms of H2B-mCherry, flow cytometry, 48 hours post-drug addition
T1 construct: transmembrane domain with γ-secretase cleavage site (TMD) (internal); Gal4-VP64 intracellular domain (C); expressed in transfected cells
Method: FIGS. 2A-2B. (FIG. 2A) Schematic of antiviral drug sensor which is designed to sense Hepatitis C Virus NS3 inhibitors. (FIG. 2B) Two sensors with varying sensitivity to antiviral drug based on the affinity of their intramolecular peptide. Activity of the sensor is shown as histograms of intracellular domain driven H2B-mCherry expression in clonal cell lines, measured by flow cytometry, 48 hours post-drug addition. […] Red arrows are drawn to highlight differences in sensitivity to ligand. Drug is grazoprevir or delivery vehicle control, DMSO.
as §1
For proof of concept, the ICD chosen was a synthetic transcription factor, Gal4-VP64, which activates UAS promoter driven H2B-mCherry gene expression. […] The substitution of the high affinity peptide for low affinity peptide appears to increase the sensitivity of the sensor, consistent with the theory of competitive displacement kinetics.

T1 sequence (P27958 1027-1208 S1165A): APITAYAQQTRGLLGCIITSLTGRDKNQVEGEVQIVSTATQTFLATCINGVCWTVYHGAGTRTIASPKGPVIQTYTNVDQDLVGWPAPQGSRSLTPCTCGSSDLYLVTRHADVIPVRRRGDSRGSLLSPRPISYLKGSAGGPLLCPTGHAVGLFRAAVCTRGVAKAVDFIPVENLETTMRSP

Compound: CN(C)CC[C@H](CSc1ccccc1)Nc1ccc(S(=O)(=O)NC(=O)c2ccc(N3CCN(Cc4ccccc4-c4ccc(Cl)cc4)CC3)cc2)cc1[N+](=O)[O-] [ABT-737]
- ICD driven H2B-mCherry expression ([1]; BCL-xL-BH3(G22)-TMD-Gal4-VP64 sensor, ABT-737 3 μM, images 24 hours after transfection and drug addition): activates ICD driven H2B-mCherry expression
- activation of H2B-mCherry (sensor response to drug) ([1]; microscopy, 48 hours after transfection and drug addition): concentration dependent activation

Compound: C[C@H](NC(=O)Cc1cc(F)cc(F)c1)C(=O)N[C@H]1N=C(c2ccccc2)c2ccccc2N(C)C1=O [Compound E]
- ICD driven activation of H2B-mCherry in presence of sensor inducer [2]: ablated
- ICD driven activation of H2B-mCherry in presence of sensor inducer ([2]; listed as compound E): inhibited

- ICD driven activation of H2B-mCherry in presence of sensor inducer [2]: inhibited; also recorded: ablated
Compound: C[C@H](NC(=O)Cc1cc(F)cc(F)c1)C(=O)N[C@H](C(=O)OC(C)(C)C)c1ccccc1 [DAPT]

Compound: DEEMEEC
- sensitivity of the sensor to antiviral drug, by intramolecular peptide [3]: high sensitivity

Compound: GELDELVYLLDGPGYDPIHS [CP5-46A-4D5E]
- sensitivity of the sensor to antiviral drug, by intramolecular peptide [3]: intermediate sensitivity
